From patent US20220233602A1, “GENERATION OF NEURAL STEM CELL LINES DERIVED FROM HUMAN PLURIPOTENT STEM CELLS” (Novo Nordisk A/S, priority 2019, published 2022)
Entries after “also recorded” stand apart in the source; their conditions may differ. Read-outs that look alike come from different tables or passages of the source.

Assays:
[1] = test system: hESC; settings: for Rosette: 3 = high number of neural rosettes; for Thickness Epithelium: thicker columnar epithelium of the neural rosette; for No Side Population (OTX2 Neg): score by OTX2 staining: 3 = no detection of OTX2 negative cells, evaluated only in conditions without NES negative cells; for Final Score: sum of the parameter scores; for Cell death: 3 = low number of pyknotic nuclei
Procedure: The experimental protocol used for neural induction of hESC and subsequent generation and NSC line establishment can roughly be divided in three main stages—Neuroectoderm induction and NECS formation; NECS plating and rosette formation and finally NSC line establishment by replating the cells in expansion media.
50-90% confluent hESC were washed with PBS^−/− and dissociated from monolayer culture with TrypLE™ Select (Gibco) at 37° C. for approximately 5 minutes to obtain single-cell suspension. The single-cell suspension of hESCs was resuspended in NutriStem® supplemented with 10 μM ROCKi (Y-27632) and as standard 1 mL with cell densities of 1×10^5-2×10^5 cells per mL was seeded into one single well (around 3.5 cm^2) of a 12-well plates (Day 0).
At day 1, around 50% of the medium was exchanged with NECS media consisting of DMEM/F12 GlutaMAX™ supplement (Gibco™) supplemented with 20 U/mL Penicillin-streptomycin, 1% N-2 Supplement (Gibco™) and GW788388 or RepSox in different concentrations, without ROCKi. To initiate rotary NECS formation, plates were from day 1-6 placed on a Multi Bio 3D Mini-shaker (BioSan) at different speeds, timeslots, levels and angle. As an example, one optimal condition was:
The NECS media was exchanged everyday by removing half of the media and adding fresh medium. […] After 6 days in dynamic conditions all NECS were collected and plated in 2D on 48-well plates, laminin coated. For coating, 1:50 natural mouse laminin (L2020-1MG, Sigma-Aldrich, 1 mg/ml) was performing fine, but the type of laminin can be also extended to LN-521 or LN-511 (BioLamina). From day 7 to day 10, now in attachment in 2D, all media was removed, and cells were re-feed with fresh NECS media. An example of the different steps can be shown in FIG. 4, with images after Day 3 (dynamic suspension), Day 8 (neural rosettes in 2D) and Day 10 (before single cell dissociation).
The parameters measured were cell death, rosette formation, a monolayer formation in 2D, thickness of the epithelium formed in the rosette structure, and the absence of side population (all cells being NES and OTX2 positive), i.e. purity of the cell population
Cell death: Monitored by DAPI (4′,6-diamidino-2-phenylindole) staining. Pyknosis, or karyopyknosis, is the irreversible condensation of chromatin in the nucleus of a cell undergoing necrosis or apoptosis. After visual inspection under the fluorescent microscope, a score of 0 represent high number of pyknotic nuclei and a score of 3 a low number of pyknotic nuclei.
Rosette numbers: Monitored by DAPI, ZO1 and NES stainings. After visual inspection under the fluorescent microscope, a score of 0 represent low number of neural rosettes nuclei and a score of 3 a high number of rosettes.
Monolayer formation: Monitored by brightfield and DAPI staining. After visual inspection under the microscope, a score of 3 represent a flat monolayer of cells after NECS attachment.
Thickness of the rosette columnar epithelium: Monitored by DAPI staining. After visual inspection under the fluorescent microscope, a score of 3 represent a broader, thicker columnar epithelium of the neural rosette.
Side population: Monitored by specific stainings of NES and OTX2. After visual inspection under the fluorescent microscope, a score of […] represents no detection of NES negative cells. Only in conditions without NES negative cells, the OTX2 population was evaluated. In those cases, a score of 3 represents no detection of OTX2 negative cells.

[2] = test system: hESC; assay: Differentiation protocol for NECS and rosette formation (brightfield, NES/ZO1 staining); assay type: cell-based, human; settings: for neural rosette formation, RepSox compared to GW788388: hESCs treated, NES and ZO1 staining (FIG. 6); for morphology of NECS: suspension culture, brightfield (FIG. 3)
Excerpt: As an example, one optimal condition was:

[3] = score by DAPI, ZO1, NES staining: 0 = low number, RepSox 25 μM, LY2157299 10 μM, TEW-7197 10 μM, GW788388 10 ng/ml, SB525334 10 μM, SB431542 10 μM, SB431542+LDN 10 μM+10 μM, LY2109761 2 μM
[4] = score by DAPI: 3 = broader, RepSox 25 μM, LY2157299 10 μM, TEW-7197 10 μM, GW788388 10 ng/ml, SB525334 10 μM, SB431542 10 μM, SB431542+LDN 10 μM+10 μM, LY2109761 2 μM
[5] = score by NES staining: 6 = no detection of NES negative cells, RepSox 25 μM, LY2157299 10 μM, TEW-7197 10 μM, GW788388 10 ng/ml, SB525334 10 μM, SB431542 10 μM, SB431542+LDN 10 μM+10 μM, LY2109761 2 μM
[6] = RepSox 25 μM, LY2157299 10 μM, TEW-7197 10 μM, SB431542+LDN 10 μM+10 μM, LY2109761 2 μM
[7] = score by brightfield and DAPI: 3 = flat monolayer of cells after NECS attachment, RepSox 25 μM, LY2157299 10 μM, TEW-7197 10 μM, GW788388 10 ng/ml, SB525334 10 μM, SB431542 10 μM, SB431542+LDN 10 μM+10 μM, LY2109761 2 μM
[8] = RepSox 25 μM, LY2157299 10 μM, TEW-7197 10 μM, GW788388 10 ng/ml, SB525334 10 μM, SB431542 10 μM, SB431542+LDN 10 μM+10 μM, LY2109761 2 μM
[9] = score by DAPI staining: 0 = high number, RepSox 25 μM, LY2157299 10 μM, TEW-7197 10 μM, GW788388 10 ng/ml, SB525334 10 μM, SB431542 10 μM, SB431542+LDN 10 μM+10 μM, LY2109761 2 μM
[10] = Low concentration (RepSox 0.25 μM, GW788388 0.1 ng/ml, SB525334 0.1 μM), score by DAPI: 0 = high number
[11] = Low concentration (RepSox 0.25 μM, GW788388 0.1 ng/ml, SB525334 0.1 μM), score: 0 = low number
[12] = Low concentration (RepSox 0.25 μM, GW788388 0.1 ng/ml, SB525334 0.1 μM), score: 3 = broader
[13] = Low concentration (RepSox 0.25 μM, GW788388 0.1 ng/ml, SB525334 0.1 μM), score: 3 = flat monolayer of cells after NECS attachment
[14] = Low concentration (RepSox 0.25 μM, GW788388 0.1 ng/ml, SB525334 0.1 μM), score: 6 = no detection of NES negative cells
[15] = Low concentration (RepSox 0.25 μM, GW788388 0.1 ng/ml, SB525334 0.1 μM)

Row | Compound | Rosette [1, 3] | Thickness Epithelium [1, 4] | No Side Population (NES Neg) [1, 5] | No Side Population (OTX2 Neg) [1, 6] | Monolayer formation [1, 7] | Final Score [1, 8] | Cell death [1, 9] | Cell death [1, 10] | Rosette [1, 11] | Thickness Epithelium [1, 12] | Monolayer formation [1, 13] | No Side Population (NES Neg) [1, 14] | Final Score [1, 15] | homogeneous population of neural rosettes with NES positive cells and ZO1 in the center of each rosette ([2]; RepSox 25 and 50 μM (FIGS. 7 and 8)) | neural rosette formation, RepSox compared to GW788388 [2] | homogeneous population of neural rosettes with NES positive cells and ZO1 in the center of each rosette ([2]; lower concentrations of RepSox (0.25 μM, 2.5 μM; FIGS. 7 and 8)) | morphology of NECS [2]
1 | Cc1cccc(-c2[nH]c(CNc3ccccc3F)nc2-c2ccc3ncnn3c2)n1 [TEW-7197, 2-fluoro-N[[5-(6-methylpyridin-2-yl)-4-([1,2,4]triazolo[1,5-a]pyridin-6-yl)-1H-imidazol-2-yl]methyl]aniline] | 2 | 2 | 6 | 3 | 2 | 15 | – | – | – | – | – | – | – | – | – | – | –
2 | c1ccc(-c2nn3c(c2-c2ccnc4cc(OCCN5CCOCC5)ccc24)CCC3)nc1 [LY2109761] | 0 | 0 | 6 | 3 | 0 | 9 | 0 | – | – | – | – | – | – | – | – | – | –
3 | Cc1cccc(-c2[nH]c(C(C)(C)C)nc2-c2ccc3nccnc3c2)n1 [SB525334] | 3 | 2 | 4 | – | 2 | 11 | 0 | 2 | 3 | 3 | 2 | 0 | 10 | – | – | – | –
4 | Cc1cccc(-c2n[nH]cc2-c2ccc3ncccc3n2)n1 [RepSox, 2-(3-(6-Methylpyridine-2-yl)-1H-pyrazol-4-yl)-1,5-naphthyridine] | 3 | 2 | 6 | 3 | 3 | 20 | – | – | 3 | 3 | 3 | 0 | 12 | optimal to obtain an homogeneous population of neural rosettes | superior; also recorded: multiple neural rosettes are observed | less clear effect | more transparent NECS; also recorded: bright cavities
5 | Cc1cccc(-c2nn3c(c2-c2ccnc4ccc(C(N)=O)cc24)CCC3)n1 [LY2157299, 4-[2-(6-methylpyridin-2-yl)-5,6-dihydro-4H-pyrrolo[1,2-b]pyrazol-3-yl]quinoline-6-carboxamide] | 3 | 3 | 6 | 0 | 2 | 17 | 3 | – | – | – | – | – | – | – | – | – | –
6 | NC(=O)c1ccc(-c2nc(-c3ccc4c(c3)OCO4)c(-c3ccccn3)[nH]2)cc1 [SB431542, 4-[4-(1,3-benzodioxol-5-yl)-5-(2-pyridinyl)-1H-imidazol-2-yl]benzamide] | 3 | 2 | 0 | – | 2 | 10 | – | – | – | – | – | – | – | – | – | – | –
7 | O=C(NC1CCOCC1)c1ccc(-c2cc(-c3cn[nH]c3-c3ccccn3)ccn2)cc1 [GW788388, N-(oxan-4-yl)-4-[4-(5-pyridin-2-yl-1H-pyrazol-4-yl)pyridin-2-yl]benzamide] | 3 | 3 | 0 | – | 3 | 12 | 3 | 2 | 2 | 2 | 3 | 0 | 9 | – | only few rosettes are observed | – | darker and denser core
